Reference: the PolyMetriX glass transition set
± gives the standard deviation of the reports.

Row | Compound | glass transition temperature [°C]
1 | *C(=O)c1ccc2c(c1)C(=O)N(c1cccc(P(=O)(c3ccccc3)c3cccc(N4C(=O)c5ccc(*)cc5C4=O)c3)c1)C2=O (repeat unit) | 273.00
2 | *O[Si](*)(C)CCc1cc(C(=O)Oc2ccc(OC)cc2)ccc1C(=O)Oc1ccc(OC)cc1 (repeat unit) | 111.00
3 | *CC1CCC(COP(=O)(/N=N/c2ccc(Oc3ccc(/N=N/P(=O)(O*)OC)cc3)cc2)OC)CC1 (repeat unit) | 50.00
4 | *C(=O)c1ccc2c(c1)C(=O)N(c1cccc(Nc3nc(Nc4cccc(N5C(=O)c6ccc(*)cc6C5=O)c4)nc(N(c4ccccc4)c4ccccc4)n3)c1)C2=O (repeat unit) | 290.00
5 | *CC(c1ccccc1)C1C(=O)N(CCCN(CC)c2ccc(/N=N/c3ccc([N+](=O)[O-])cc3Cl)c(C)c2)C(=O)C1* (repeat unit) | 149.00
6 | *Oc1ccc2ccc(Oc3ccc(C(=O)Nc4cccc(NC(=O)c5ccc(*)cc5)c4)cc3)cc2c1 (repeat unit) | 168.00
7 | *CCCCCCCCCCCCNC(=O)CCCCCCCCCCCCC(=O)N* (repeat unit) | 49.00
8 | *c1nc(-c2ccccc2)nc(N(C)CCCCCCN(*)C)n1 (repeat unit) | 57.00
9 | *C(=O)Nc1ccc(Oc2ccc(C(C)(C)c3cccc(C(C)(C)c4ccc(Oc5ccc(N6C(=O)c7ccc(*)cc7C6=O)cc5)cc4)c3)cc2)cc1 (repeat unit) | 177.00
10 | *CC(*)OCC(C)C (repeat unit) [Poly(isobutyl vinyl ether)] | -22.08 ± 2.5
11 | *CC(*)(CC(=O)OCCCCl)C(=O)OCCCCl (repeat unit) | 47.00
12 | *c1ccc(-c2c(-c3ccccc3)nc3ccc(-c4ccc5nc(-c6ccccc6)c(*)c(-c6ccccc6)c5c4)cc3c2-c2ccccc2)cc1 (repeat unit) | 370.00
13 | *C(=O)c1ccc2c(c1)C(=O)N(c1ccccc1C(=O)c1ccccc1N1C(=O)c3ccc(*)cc3C1=O)C2=O (repeat unit) | 289.00
14 | *C(=O)c1ccc2c(c1)C(=O)N(c1cccc(C(c3ccccc3)(c3cccc(N4C(=O)c5ccc(*)cc5C4=O)c3)C(F)(F)F)c1)C2=O (repeat unit) | 311.00
15 | *Oc1ccc(C(C)(C)c2ccc(OC(=O)CCCCC(*)=O)cc2)cc1 (repeat unit) | 54.00
16 | *c1ccc2cc3cc(-c4sc(-c5cc(CCCCCCCCCCCC)c(*)s5)cc4CCCCCCCCCCCC)ccc3cc2c1 (repeat unit) | 158.00
17 | *CCCCCCCCCCSS* (repeat unit) | -65.00
18 | *CCCCCCNC(=O)CCC(C)(C)c1ccc(C(C)(C)CCC(=O)N*)cc1 (repeat unit) | 93.2
19 | *c1ccc(Oc2ccc(-c3ccc(Oc4ccc(N5C(=O)c6cccc(Oc7c(Oc8cccc9c8C(=O)N(*)C9=O)cc(C(C)(C)C)cc7C(C)(C)C)c6C5=O)cc4)cc3)cc2)cc1 (repeat unit) | 237.00
20 | *OC(COC(*)=O)COC(C)(C)C (repeat unit) | 18.00
21 | *CCCCCCOC(=O)c1cc(OCCCCCCOc2ccc(/N=N/c3ccc(C#N)cc3)cc2)cc(C(=O)OCCCCCCN2C(=O)c3ccc(-c4ccc(-c5ccc6c(c5)C(=O)N(*)C6=O)cc4)cc3C2=O)c1 (repeat unit) | 67.00
22 | *CC(O)COC(=O)C1CCC(C(=O)OCC(O)COc2ccc(C3(c4ccc(O*)cc4)c4ccccc4-c4ccccc43)cc2)CC1 (repeat unit) | 110.00
23 | *CCC[Si](*)(C)O[Si](C)(C)CCCOc1ccc(C(=O)Oc2ccc(-c3ccc(C#N)cc3)cc2)cc1 (repeat unit) | 10.10

Row | Compound | glass transition temperature [°C]
24 | *CC(*)OC(=O)C1CCCCC1 (repeat unit) | 66.00
25 | *C(=O)NCCNC(=O)c1ncn(C)c1* (repeat unit) | 189.00
26 | *CCCCCCCCCn1c(=O)c2cc3c(=O)n(*)c(=O)c3cc2c1=O (repeat unit) | 110.00
27 | *CC1CCCC(CNC(=O)c2cc(C(=O)N*)cc(C(C)(C)C)c2)C1 (repeat unit) | 200.00
28 | *CCN(*)C(=O)c1ccc2ccccc2c1 (repeat unit) | 130.00
29 | *CC(*)(C)c1ccc(C(O)C(F)(F)F)cc1 (repeat unit) | 199.00
30 | *COC(=O)Nc1ccc(Cc2ccc(NC(=O)OCc3cocc3*)cc2)cc1 (repeat unit) | 45.00
31 | *CCc1ccc(*)c2ccccc12 (repeat unit) | 160.00
32 | *C1C(=O)N(c2ccccc2C)C(=O)C1* (repeat unit) | 335.00
33 | *c1ccc(-c2ccc(-c3ccc(-c4cnc5ccc(-c6ccc7ncc(*)nc7c6)cc5n4)cc3)cc2)cc1 (repeat unit) | 305.00
34 | *c1ccc2c(c1)C(=O)N(c1ccc(Oc3cc(C(C)(C)C)c(Oc4ccc(N5C(=O)c6ccc(C(*)(C(F)(F)F)C(F)(F)F)cc6C5=O)cc4)cc3C(C)(C)C)cc1)C2=O (repeat unit) | 277.00
35 | *CCOC(=O)c1ccc2ccc(C(=O)O*)cc2c1 (repeat unit) | 119.00
36 | *c1cc(-c2sc(-c3cc(CCCCCCC)c(*)s3)cc2CCCCCCC)c2cccccc1-2 (repeat unit) | 56.00
37 | *CC(*)c1ccccc1C(=O)OCCC(C)C (repeat unit) | 68.00
38 | *Oc1ccc(C2(c3ccc(Oc4ccc(C(=O)c5ccccc5)c(-c5cc(*)ccc5C(=O)c5ccccc5)c4)cc3)c3ccccc3-c3ccccc32)cc1 (repeat unit) | 215.00
39 | *c1ccc(Oc2ccc(-c3ccc(Oc4ccc(N5C(=O)c6ccc(Oc7ccc(C(C)(C)c8ccc(Oc9ccc%10c(c9)C(=O)N(*)C%10=O)cc8)cc7)cc6C5=O)cc4)cc3)cc2)cc1 (repeat unit) | 220.00
40 | *c1ccc(Oc2cccc(NC(=O)c3ccc(C(=O)Nc4cccc(Oc5ccc(-c6nnc(*)o6)cc5)c4)c(Oc4ccccc4)c3)c2)cc1 (repeat unit) | 234.00
41 | *O[Si](C)(Oc1ccc(*)cc1)c1ccccc1 (repeat unit) | 95.00
42 | *Oc1ccc(-c2ccc(Oc3ccc(C(C)(C)c4ccc(*)cc4)cc3)cc2)cc1 (repeat unit) | 154.00
43 | *CCc1ccc(*)c(C)c1 (repeat unit) [Poly(methyl-p-xylylene) ] | 55 ± 1.9
44 | *CC(*)(C)C(=O)OC1CCOCC1 (repeat unit) | 153.50
45 | *Nc1ccc(C(C)(C)c2ccc(NC(=O)c3cc(C(*)=O)cc(S(=O)(=O)c4ccccc4)c3)cc2)cc1 (repeat unit) | 287.00
46 | *c1ccc(Oc2ccc(Oc3ccc(N4C(=O)c5ccc(Oc6c(C)cc(C(C)(C)c7cc(C)c(Oc8ccc9c(c8)C(=O)N(*)C9=O)c(C)c7)cc6C)cc5C4=O)cc3)c(C(C)(C)C)c2)cc1 (repeat unit) | 244.00

Row | Compound | glass transition temperature [°C]
47 | *CC(*)C(=O)Oc1ccc(C(=O)O)cc1 (repeat unit) | 125.00
48 | *CCCCCCCCN1C(=O)c2ccc(-c3ccc(-c4ccc5c(c4)C(=O)N(*)C5=O)cc3)cc2C1=O (repeat unit) | 120.00
49 | *Oc1c(Cl)cc(C(C)(C)c2cc(Cl)c(OC(*)=O)c(Cl)c2)cc1Cl (repeat unit) | 227.00
50 | *Oc1ccc(C(=O)c2cccc(NC(=O)c3cccc(C(=O)Nc4ccc(C(=O)c5ccc(*)cc5)cc4)c3)c2)cc1 (repeat unit) | 204.00
51 | *c1cccc(-c2nc3cc(-c4ccc5[nH]c(*)nc5c4)ccc3[nH]2)c1 (repeat unit) | 410.00
52 | *Oc1c(-c2ccccc2)cc(-c2cc(-c3ccccc3)c(OC(=O)CCCCCCCCC(*)=O)c(-c3ccccc3)c2)cc1-c1ccccc1 (repeat unit) | 98.00
53 | *CCCC(=O)Nc1ccc(Oc2ccc(Oc3ccc(NC(=O)CCCN4C(=O)c5ccc(C(=O)c6ccc7c(c6)C(=O)N(*)C7=O)cc5C4=O)cc3)cc2)cc1 (repeat unit) | 178.00
54 | *CCCCC(=O)NCc1ccc(CNC(=O)CCCCO*)cc1 (repeat unit) | 70.00
55 | *Oc1ccc(C(C)(C)c2ccc(OC(=O)c3ccc(C(*)=O)cc3)cc2)cc1 (repeat unit) [Poly(Bisphenol A terephthalate)] | 199.92 ± 1.5
56 | *CCCC1(CCCNC(=O)CCCCC(=O)N*)c2ccccc2-c2ccccc21 (repeat unit) | 120.00
57 | *c1ccc(Cc2ccc(-n3nc(-c4ccccc4)cc3-c3cccc(-c4cc(-c5ccccc5)nn4*)c3)cc2)cc1 (repeat unit) | 225.00
58 | *c1cccc(C(=O)c2c(C)cc(C)c(N3C(=O)c4ccc(-c5ccc6c(c5)C(=O)N(*)C6=O)cc4C3=O)c2C)c1 (repeat unit) | 320.00
59 | *CC(*)C(=O)Nc1ccc(C(=O)/C=C/c2ccc(Br)cc2)cc1 (repeat unit) | 64.00
60 | *CC(C)(CCC)C(=O)O* (repeat unit) | 1.90
61 | *CC(*)OCCOc1ccc(/N=N/c2ccc(C#N)cc2)cc1 (repeat unit) | 61.00
62 | *c1ccc(Oc2ccc(C(=O)c3cccc(C(=O)c4ccc(Oc5ccc(-c6cc(*)[nH]n6)cc5)cc4)c3)cc2)cc1 (repeat unit) | 205.00
63 | *CCCCCC(=O)Nc1ccc(Oc2ccc(Oc3ccc(NC(=O)CCCCCN4C(=O)c5ccc(C(=O)c6ccc7c(c6)C(=O)N(*)C7=O)cc5C4=O)cc3)cc2)cc1 (repeat unit) | 158.00
64 | *CC(=O)NCC(=O)O* (repeat unit) | 67.00
65 | *CC(*)(C)C(=O)OCCCCCCCCCCOc1ccc(/N=N/c2ccc([N+](=O)[O-])cc2)cc1 (repeat unit) | 55.00
66 | *Nc1cccc(NC(=O)c2cc(NC(=O)c3ccccc3)cc(C(*)=O)c2)c1 (repeat unit) | 300.00
67 | *CCN(*)C(=O)CC (repeat unit) | 60.00
68 | *O[Si](C)(C)c1ccc(-c2ccc([Si](*)(C)C)cc2)cc1 (repeat unit) | 67.00
